For assay [1], the target named is T1, Shp1 (Homo sapiens (Human), UniProt P29350).
For the next assay, the target named is Shp2 (Homo sapiens (Human), UniProt Q06124). Nature of the assay: PTP activity assay (DiFMUP substrate) with GST-Shp2. As to conditions: for IC50: Table II, Shp2. Type of assay: biochemical. An excerpt:
(§1) All constructs were verified by DNA sequencing.
(§2) Recombinant DEP1 was from Abcam.

The target of assay [2] is T1, Shp1. Nature of the assay: biochemical.
Another assay addresses DEP1 (Homo sapiens (Human), UniProt Q12913). In words: PTP activity assay (DiFMUP substrate) with recombinant DEP1. Type of assay: biochemical. As to conditions: DEP1, in vitro.
A further assay concerns the target PTP1B (Homo sapiens (Human), UniProt P18031). Nature of the assay: PTP activity assay (DiFMUP substrate) with GST-PTP1B. Type of assay: biochemical. As to conditions: in vitro.
Excerpt: as §1, §2

Another assay deals with LAR (Homo sapiens (Human), UniProt P10586). In words: PTP activity assay (DiFMUP substrate) with LAR D1 domain. Type of assay: biochemical. As to conditions: in vitro.
LAR, sequence (P10586 1352-1607): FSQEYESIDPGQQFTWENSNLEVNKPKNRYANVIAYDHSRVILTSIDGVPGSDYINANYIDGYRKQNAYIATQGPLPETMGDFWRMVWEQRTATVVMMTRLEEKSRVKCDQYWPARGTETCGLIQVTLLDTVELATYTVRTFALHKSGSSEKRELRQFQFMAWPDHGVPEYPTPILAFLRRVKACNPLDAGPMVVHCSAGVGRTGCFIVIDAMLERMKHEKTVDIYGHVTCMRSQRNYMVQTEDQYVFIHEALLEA
In assay [3] the test system is Gab1 tyrosine phosphorylation and Gab1-Shp2 association. Nature of the assay: EGF-induced Gab1 tyrosine phosphorylation and Gab1-Shp2 association in HEK293 cells. Type of assay: cell-based. As to conditions: 20 μM, 3 h, EGF 5 ng/ml 5 min. How it is done: . Gab1 was immunoprecipitated from cell lysate supernatants. Immunoprecipitates were analyzed by immunoblotting with antibodies to phosphotyrosine (pY), Gab1, or Shp2. An aliquot of each cell lysate supernatant (30 μg) was also examined by immunoblotting with an antibody to Shp2 (bottom panel). pY-Gab1, tyrosine-phosphorylated Gab1.
Shp2 is activated in EGF-stimulated cells by binding to tyrosine-phosphorylated Gab1 (and Gab2 if it is also expressed) (Cunnick et al., 2001). […] . […] . […] .

The next assay concerns the target CD45 (Homo sapiens (Human), UniProt P08575). Nature of the assay: PTP activity assay (DiFMUP substrate) with recombinant CD45. It counts as biochemical. As to conditions: CD45, in vitro.

Structures are written as SMILES. Read-outs that look alike come from different tables or passages of the source.

T1 sequence (P29350 203-595): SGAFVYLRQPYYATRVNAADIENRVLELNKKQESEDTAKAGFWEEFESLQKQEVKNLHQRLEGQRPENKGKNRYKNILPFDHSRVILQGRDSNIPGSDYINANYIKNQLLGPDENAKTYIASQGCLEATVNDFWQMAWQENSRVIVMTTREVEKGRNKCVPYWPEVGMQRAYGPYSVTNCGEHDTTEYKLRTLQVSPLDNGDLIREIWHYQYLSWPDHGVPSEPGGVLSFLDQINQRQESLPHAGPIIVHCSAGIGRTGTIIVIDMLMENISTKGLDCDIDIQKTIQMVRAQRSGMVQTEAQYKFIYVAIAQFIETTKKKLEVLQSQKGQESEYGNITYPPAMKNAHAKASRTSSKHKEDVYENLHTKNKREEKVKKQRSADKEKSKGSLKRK
Shp2, sequence (Q06124 205-593): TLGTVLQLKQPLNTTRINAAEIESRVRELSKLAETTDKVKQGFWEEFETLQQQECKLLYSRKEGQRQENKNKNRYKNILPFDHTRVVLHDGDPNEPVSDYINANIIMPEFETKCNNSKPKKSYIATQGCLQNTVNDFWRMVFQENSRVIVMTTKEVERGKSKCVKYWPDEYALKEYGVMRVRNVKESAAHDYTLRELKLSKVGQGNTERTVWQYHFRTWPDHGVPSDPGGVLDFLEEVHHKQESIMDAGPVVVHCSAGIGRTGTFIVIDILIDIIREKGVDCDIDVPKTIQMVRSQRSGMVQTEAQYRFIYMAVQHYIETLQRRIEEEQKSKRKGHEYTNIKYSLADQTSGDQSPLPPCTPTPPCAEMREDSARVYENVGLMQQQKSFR
DEP1, sequence (Q12913 36-1337): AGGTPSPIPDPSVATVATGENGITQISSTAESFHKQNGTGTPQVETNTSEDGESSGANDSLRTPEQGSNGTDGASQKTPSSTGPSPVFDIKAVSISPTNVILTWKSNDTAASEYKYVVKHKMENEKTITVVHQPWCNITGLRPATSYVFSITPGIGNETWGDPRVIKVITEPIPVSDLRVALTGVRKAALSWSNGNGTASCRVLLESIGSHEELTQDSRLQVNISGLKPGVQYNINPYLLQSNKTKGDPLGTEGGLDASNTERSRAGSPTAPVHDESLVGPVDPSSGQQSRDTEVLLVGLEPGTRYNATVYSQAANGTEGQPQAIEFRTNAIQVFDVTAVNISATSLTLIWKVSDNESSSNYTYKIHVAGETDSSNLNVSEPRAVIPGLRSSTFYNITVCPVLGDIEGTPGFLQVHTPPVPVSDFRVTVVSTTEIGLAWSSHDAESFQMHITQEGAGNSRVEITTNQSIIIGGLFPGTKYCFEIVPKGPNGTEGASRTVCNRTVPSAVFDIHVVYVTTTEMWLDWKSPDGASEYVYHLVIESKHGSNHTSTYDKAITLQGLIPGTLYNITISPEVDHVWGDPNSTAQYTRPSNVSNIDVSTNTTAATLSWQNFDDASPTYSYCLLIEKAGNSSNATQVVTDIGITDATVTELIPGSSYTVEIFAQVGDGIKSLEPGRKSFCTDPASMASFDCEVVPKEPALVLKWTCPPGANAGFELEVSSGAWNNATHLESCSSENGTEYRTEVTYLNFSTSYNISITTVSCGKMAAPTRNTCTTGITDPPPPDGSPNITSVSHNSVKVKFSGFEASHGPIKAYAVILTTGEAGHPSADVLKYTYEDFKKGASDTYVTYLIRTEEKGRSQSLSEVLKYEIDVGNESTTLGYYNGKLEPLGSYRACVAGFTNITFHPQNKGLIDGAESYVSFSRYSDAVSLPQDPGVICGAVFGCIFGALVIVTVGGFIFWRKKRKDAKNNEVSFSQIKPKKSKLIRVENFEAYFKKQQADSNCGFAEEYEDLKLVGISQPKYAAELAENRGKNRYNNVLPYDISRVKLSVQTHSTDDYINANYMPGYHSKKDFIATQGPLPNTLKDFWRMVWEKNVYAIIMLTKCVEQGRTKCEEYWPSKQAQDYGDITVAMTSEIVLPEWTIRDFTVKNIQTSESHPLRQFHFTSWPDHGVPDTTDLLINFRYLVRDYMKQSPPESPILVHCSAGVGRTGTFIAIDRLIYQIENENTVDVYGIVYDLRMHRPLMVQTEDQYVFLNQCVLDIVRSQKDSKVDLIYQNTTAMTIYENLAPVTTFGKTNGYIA
CD45, sequence (P08575 609-1306): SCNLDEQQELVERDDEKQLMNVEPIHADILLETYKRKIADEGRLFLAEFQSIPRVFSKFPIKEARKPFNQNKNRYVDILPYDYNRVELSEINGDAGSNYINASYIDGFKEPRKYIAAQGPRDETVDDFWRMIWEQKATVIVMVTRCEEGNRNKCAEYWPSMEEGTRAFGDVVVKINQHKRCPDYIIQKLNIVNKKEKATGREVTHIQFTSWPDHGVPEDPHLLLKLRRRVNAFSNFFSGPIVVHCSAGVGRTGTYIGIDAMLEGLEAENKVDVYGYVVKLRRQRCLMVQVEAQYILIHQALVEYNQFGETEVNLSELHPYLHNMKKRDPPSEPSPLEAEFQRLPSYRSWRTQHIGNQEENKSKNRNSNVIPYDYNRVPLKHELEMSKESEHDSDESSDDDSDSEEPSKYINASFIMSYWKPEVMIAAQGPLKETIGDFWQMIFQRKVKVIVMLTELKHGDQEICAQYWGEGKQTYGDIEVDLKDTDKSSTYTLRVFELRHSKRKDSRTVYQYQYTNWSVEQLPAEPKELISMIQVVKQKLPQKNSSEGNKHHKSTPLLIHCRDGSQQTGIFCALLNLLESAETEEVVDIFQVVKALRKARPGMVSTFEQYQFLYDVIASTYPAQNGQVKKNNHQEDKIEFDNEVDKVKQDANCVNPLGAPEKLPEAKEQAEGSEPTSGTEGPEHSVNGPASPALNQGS
PTP1B, sequence (P18031 whole entry): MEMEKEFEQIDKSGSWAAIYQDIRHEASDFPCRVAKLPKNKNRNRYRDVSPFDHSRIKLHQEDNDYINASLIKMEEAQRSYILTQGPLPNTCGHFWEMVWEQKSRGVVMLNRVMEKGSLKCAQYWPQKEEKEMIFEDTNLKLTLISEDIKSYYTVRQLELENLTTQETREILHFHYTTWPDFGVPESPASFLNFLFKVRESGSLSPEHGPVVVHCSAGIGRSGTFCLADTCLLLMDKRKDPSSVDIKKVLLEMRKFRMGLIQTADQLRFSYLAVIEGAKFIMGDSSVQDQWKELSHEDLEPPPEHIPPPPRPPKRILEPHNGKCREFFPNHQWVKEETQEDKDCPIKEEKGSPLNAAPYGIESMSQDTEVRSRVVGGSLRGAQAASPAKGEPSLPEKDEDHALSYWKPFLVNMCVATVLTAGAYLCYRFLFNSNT

On Shp1 [1], `O=C1Nc2ccc(S(=O)(=O)O)cc2/C1=N/Nc1ccccc1[N+](=O)[O-]` [HL1-056] returned an IC50 of 68.1 µM. For the same compound, at Shp2 (concentration not given), the “% PTP activity” value is listed as 86 ± 3% (6).

The compound `O=C1Nc2ccc(C(=O)O)cc2/C1=N/Nc1ccccc1C(=O)O` [HL2-052-2] showed an IC50 against Shp1 [2] of 21.4 µM. Moreover, the “% PTP activity” value at Shp2 (at 20 μM) was 46 ± 3% (2) at 20 μM.

Take `O=C1Nc2ccc(C(=O)O)cc2/C1=N/Nc1cccc(C(=O)O)c1` [HL2-052-3]: at Shp1 [1], the half-maximal inhibitory concentration (IC50) is 72.5 µM. Moreover, the “% PTP activity” value on Shp2 (at 20 μM) is given as 56.94% (1) at 20 μM.

`O=C1Nc2ccc(C(=O)NCc3ccc(Cl)cc3)cc2/C1=N/Nc1cccc(C(=O)O)c1` [HL2-070-5] returned an IC50 against Shp1 [1] of 19.4 µM. For the same compound, at Shp2 (at 20 μM), the “% PTP activity” value is 62.32% (1) at 20 μM.

Turning to `O=S(=O)(O)c1ccc2cc(/N=N\c3cc(S(=O)(=O)O)c4cccnc4c3O)ccc2c1` [NSC-87877, 8-hydroxy-7-(6-sulfonaphthalen-2-yl)diazenyl-quinoline-5-sulfonic acid], the IC50 on DEP1 is 65.6 ± 4.12 µM; against PTP1B it was 1690 ± 407 nM; on LAR it was 151 ± 9.08 µM; against Shp1 [2], 0.355 µM; at CD45 it was 84.5 ± 16.2 µM. Besides, the “EGF-stimulated Gab1 tyrosine phosphorylation” value in assay [3] was “did not inhibit”. Moreover, the “binding of Shp2 to Gab1” value in assay [3] was “did not inhibit”.

For `NS(=O)(=O)c1ccc2c(c1)/C(=N/Nc1ccccc1[N+](=O)[O-])C(=O)N2` [RPM134, 3-[(2-Nitrophenyl)hydrazono]-2-oxo-2,3-dihydro-1H-indole-5-sulfonicamide], the IC50 at Shp1 [2] was 93.5 µM. The “% PTP activity” value on Shp2 (concentration not given) is 13 ± 5% (12).

In turn, `O=C1Nc2ccc(S(=O)(=O)NCc3ccc(Cl)cc3)cc2/C1=N/Nc1ccccc1[N+](=O)[O-]` [RPM139, 3-[(2-Nitrophenyl)hydrazono]-2-oxo-2,3-dihydro-1H-indole-5-sulfonic acid 4-chlorobenzylamide] registered an IC50 at Shp1 [2] of 42.2 µM. Moreover, the “% PTP activity” value on Shp2 (concentration not given) was 12 ± 5% (12).

Consider `CC(C)NS(=O)(=O)c1ccc2c(c1)/C(=N/Nc1ccccc1[N+](=O)[O-])C(=O)N2` [RPM169, 3-[(2-Nitrophenyl)hydrazono]-2-oxo-2,3-dihydro-1H-indole-5-sulfonic acid isopropylamide], for which, on Shp1 [2], 110 µM corresponded to half-maximal inhibition (IC50). For the same compound, the “% PTP activity” value at Shp2 (concentration not given) is on record as 8 + 3% (12).

The compound `CC(C)NS(=O)(=O)c1ccc2c(c1)/C(=N/Nc1ccccc1C(=O)O)C(=O)N2` [RPM186, 2-[N′-(5-Isopropylsulfamoyl-2-oxo-1,2-dihydro-indol-3-ylidene)-hydrazino]benzoic acid] showed an IC50 on Shp1 [2] of 10.8 µM. Besides, the “% PTP activity” value at Shp2 (at 20 μM) is 0.8 ± 1% (3) at 20 μM.

With `CC(C)NS(=O)(=O)c1ccc2c(c1)/C(=N/Nc1cccc(C(=O)O)c1)C(=O)N2` [RPM297, 3-[N′-(5-Isopropylsulfamoyl-2-oxo-1,2-dihydro-indol-3-ylidene)hydrazino]benzoic acid], the IC50 against Shp1 [1] came out at 15.7 µM. In addition, on Shp2 (at 20 μM), the “% PTP activity” value is 54 ± 8% (2) At 20 μM.

For the compound `O=C1Nc2ccc(S(=O)(=O)NCc3ccc(Cl)cc3)cc2/C1=C/Nc1ccccc1[N+](=O)[O-]` [RPM310], the “% PTP activity” value at Shp2 (at 20 μM) was 66.20% (1) At 20 μM.

For `O=C1Nc2ccc(C(=O)O)cc2/C1=N/Nc1ccccc1F` [RPM319], the IC50 at Shp2 is greater than 100 µM. In addition, the “% PTP activity” value at Shp2 (at 20 μM) is given as 49 ± 4% (2) At 20 μM.

`CCc1ccccc1N/N=C1\C(=O)Nc2ccc(C(=O)O)cc21` [RPM320, 3-[(2-Ethylphenyl)hydrazono]-2-oxo-2,3-dihydro-1H-indole-5-carboxylic acid]: the “% PTP activity” value at Shp2 (at 20 μM) is reported as 44 ± 5% (2) At 20 μM.

As for `CC(C)NS(=O)(=O)c1ccc2c(c1)/C(=N/Nc1cccc(C(N)=O)c1)C(=O)N2` [RPM325, 3-[N′-(5-Isopropylsulfamoyl-2-oxo-1,2-dihydro-indol-3-ylidene)hydrazino]benzamide], the IC50 against Shp2 fell in the range of 33 to 100 µM. Moreover, the “% PTP activity” value at Shp2 (at 20 μM) was 40 + 4% (2) at 20 μM.

Take `CC(C)NS(=O)(=O)c1ccc2c(c1)/C(=N/Nc1cccc(C(=O)NCCN(C)C)c1)C(=O)N2` [RPM326, N-(2-Dimethylamino-ethyl)-3-[N′-(5-isopropylsulfamoyl-2-oxo-1,2-dihydro-indol-3-ylidene)hydrazino]benzamide]: the “% PTP activity” value on Shp2 (at 20 μM) is 57 + 13% (2) at 20 μM.

On to `COCCNC(=O)c1cccc(N/N=C2\C(=O)Nc3ccc(S(=O)(=O)NC(C)C)cc32)c1` [RPM327, 3-[N′-(5-Isopropylsulfamoyl-2-oxo-1,2-dihydro-indol-3-ylidene)hydrazino]-N-(2-methoxyethyl)benzamide], for which the “% PTP activity” value at Shp2 (at 20 μM) was 44 + 7% (2) at 20 μM.

As for `CC(C)NS(=O)(=O)c1ccc2c(c1)/C(=N/Nc1cccc(C(=O)NCc3ccccc3)c1)C(=O)N2` [RPM328, N-Benzyl-3-[N′-(5-isopropylsulfamoyl-2-oxo-1,2-dihydro-indol-3-ylidene)hydrazino]benzamide], the “% PTP activity” value on Shp2 (at 20 μM) is 47 ± 3% (2) at 20 μM.

On to `CNC(=O)c1cccc(N/N=C2\C(=O)Nc3ccc(S(=O)(=O)NC(C)C)cc32)c1` [RPM330, 3-[N′-(5-Isopropylsulfamoyl-2-oxo-1,2-dihydro-indol-3-ylidene)hydrazino]-N-methylbenzamide], for which the “% PTP activity” value at Shp2 (at 20 μM) is listed as 47 ± 1% (2) at 20 μM.

In the case of `CCNC(=O)c1cccc(N/N=C2\C(=O)Nc3ccc(S(=O)(=O)NC(C)C)cc32)c1` [RPM331, N-Ethyl-3-[N′-(5-isopropylsulfamoyl-2-oxo-1,2-dihydro-indol-3-ylidene)hydrazino]benzamide], on Shp2 (at 20 μM), the “% PTP activity” value was 45 + 2% 92) at 20 μM.

As to `CC(C)NS(=O)(=O)c1ccc2c(c1)/C(=N/Nc1cccc(C(=O)NCc3cccnc3)c1)C(=O)N2` [RPM332, 3-[N′-(5-Isopropylsulfamoyl-2-oxo-1,2-dihydro-indol-3-ylidene)hydrazino]-N-pyridin-3-ylmethylbenzamide], the IC50 against Shp2 is 33 to 100 µM. In addition, the “% PTP activity” value on Shp2 (at 20 μM) was 54 ± 7% (2) at 20 μM.

`CC(C)NS(=O)(=O)c1ccc2c(c1)/C(=N/Nc1cccc(C(=O)NCc3ccco3)c1)C(=O)N2` [RPM333, N-Furan-2-ylmethyl-3-[′-(5-isopropylsulfamoyl-2-oxo-1,2-dihydro-indol-3-ylidene)hydrazino]benzamide] gave an IC50 at Shp2 of 33 to 100 µM. Also, on Shp2 (at 20 μM), the “% PTP activity” value is recorded as 48 ± 9% (2) at 20 μM.

On to `CC(C)NS(=O)(=O)c1ccc2c(c1)/C(=N/Nc1cccc(C(=O)NCCN3CCOCC3)c1)C(=O)N2` [RPM334, 3-[N′-(5-Isopropylsulfamoyl-2-oxo-1,2-dihydro-indol-3-ylidene)hydrazino]-N-(2-morpholin-4-yl-ethyl)benzamide], for which, on Shp2 (at 20 μM), the “% PTP activity” value was 39 ± 5% (2) at 20 μM.

With `COC(=O)c1ccccc1N/C=C1\C(=O)Nc2ccc(S(=O)(=O)NC(C)C)cc21` [RPM335, 2-[(5-Isopropylsulfamoyl-2-oxo-1,2-dihydro-indol-3-ylidenemethyl)amino]benzoic acid methyl ester], the IC50 on Shp2 fell in the range of 33 to 100 µM. Also, the “% PTP activity” value on Shp2 (at 20 μM) is 54.19% (1) At 20 μM.

On to `CC(C)NS(=O)(=O)c1ccc2c(c1)/C(=C/Nc1ccccc1C(=O)O)C(=O)N2` [RPM336, 2-[(5-Isopropylsulfamoyl-2-oxo-1,2-dihydro-indol-3-ylidenemethyl)amino]benzoic acid], for which, on Shp2, the IC50 fell in the range of 33 to 100 µM. The “% PTP activity” value at Shp2 (at 20 μM) is recorded as 48 ± 7% (2) at 20 μM.

For `COC(=O)c1ccc2[nH]cc(C(=O)c3ccccc3)c2c1` [RPM341, 3-Benzoyl-1H-indole-5-carboxylic acid methyl ester], on Shp2 (at 20 μM), the “% PTP activity” value is 42 ± 10% (2) at 20 μM.

`COC(=O)c1ccccc1/C=C1\C(=O)Nc2ccc(S(=O)(=O)NC(C)C)cc21` [RPM347, 2-(5-Isopropylsulfamoyl-2-oxo-1,2-dihydro-indol-3-ylidenemethyl)benzoic acid methyl ester]: the “% PTP activity” value at Shp2 (at 20 μM) was 48 ± 9% (2) At 20 μM.

Consider `O=C(O)c1ccc2[nH]cc(C(=O)c3ccccc3)c2c1` [RPM352, 3-Benzoyl-1H-indole-5-carboxylic acid], for which the “% PTP activity” value at Shp2 (at 20 μM) is 57 ± 9% (2) at 20 μM.

For orientation: IC50 means the concentration that inhibits the measured activity by half.

For the origin of these results see US8987474B2 (University of South Florida, priority 2006, dated 2015).
